According to patent US20160207928A1, “NOVEL COMPOUNDS FOR THE TREATMENT OF CANCER” (BAYER PHARMA AKTIENGESELLSCHAFT, priority 2013, published 2016):

How the values were obtained:
[1] = tested on: HeLa human cervical tumor cells; test: HeLa cell proliferation assay (crystal violet staining); assay type: cell-based; conditions: 96 h, 4 days incubation, read-out: Inhibition of cell proliferation, cell Line: HeLa IC50
Experimental: Cultivated tumor cells (MCF7, hormone dependent human mammary carcinoma cells, ATCC HTB22; NCI-H460, human non-small cell lung carcinoma cells, ATCC HTB-177; DU 145, hormone-independent human prostate carcinoma cells, ATCC HTB-81; HeLa-MaTu, human cervical carcinoma cells, EPO-GmbH, Berlin; HeLa-MaTu-ADR, multidrug-resistant human cervical carcinoma cells, EPO-GmbH, Berlin; HeLa human cervical tumor cells, ATCC CCL-2; B16F10 mouse melanoma cells, ATCC CRL-6475) were plated at a density of 5000 cells/well (MCF7, DU145, HeLa-MaTu-ADR), 3000 cells/well (NCI-H460, HeLa-MaTu, HeLa), or 1000 cells/well (B16F10) in a 96-well multititer plate in 200 μl of their respective growth medium supplemented 10% fetal calf serum. After 24 hours, the cells of one plate (zero-point plate) were stained with crystal violet (see below), while the medium of the other plates was replaced by fresh culture medium (200 μl), to which the test substances were added in various concentrations (0 μM, as well as in the range of 0.01-30 μM; the final concentration of the solvent dimethyl sulfoxide was 0.5%). The cells were incubated for 4 days in the presence of test substances. Cell proliferation was determined by staining the cells with crystal violet: the cells were fixed by adding 20 μl/measuring point of an 11% glutaric aldehyde solution for 15 minutes at room temperature. After three washing cycles of the fixed cells with water, the plates were dried at room temperature. The cells were stained by adding 100 μl/measuring point of a 0.1% crystal violet solution (pH 3.0). After three washing cycles of the stained cells with water, the plates were dried at room temperature. The dye was dissolved by adding 100 μl/measuring point of a 10% acetic acid solution. The extinction was determined by photometry at a wavelength of 595 nm. The change of cell number, in percent, was calculated by normalization of the measured values to the extinction values of the zero-point plate (=0%) and the extinction of the untreated (0 μm) cells (=100%). The IC50 values were determined by means of a 4 parameter fit using the company's own software.
The compounds of the present invention are characterized by the following IC50 values, determined in a HeLa cell proliferation assay (as described above): […]

human kinase Mps-1 = biological target: T1, human kinase Mps-1 (Homo sapiens, UniProt P33981); test: Mps-1 kinase assay (TR-FRET, 10 μM ATP); assay type: biochemical; conditions: N-terminally GST-tagged human full length recombinant Mps-1, read-out: Mps-1 Inhibition, IC50 (Assay with 10 μM ATP)
T1 construct: N-terminally GST-tagged human full length recombinant Mps-1 kinase; purchased Invitrogen, Karslruhe, Germany PV4071
T1 sequence (P33981 1-857): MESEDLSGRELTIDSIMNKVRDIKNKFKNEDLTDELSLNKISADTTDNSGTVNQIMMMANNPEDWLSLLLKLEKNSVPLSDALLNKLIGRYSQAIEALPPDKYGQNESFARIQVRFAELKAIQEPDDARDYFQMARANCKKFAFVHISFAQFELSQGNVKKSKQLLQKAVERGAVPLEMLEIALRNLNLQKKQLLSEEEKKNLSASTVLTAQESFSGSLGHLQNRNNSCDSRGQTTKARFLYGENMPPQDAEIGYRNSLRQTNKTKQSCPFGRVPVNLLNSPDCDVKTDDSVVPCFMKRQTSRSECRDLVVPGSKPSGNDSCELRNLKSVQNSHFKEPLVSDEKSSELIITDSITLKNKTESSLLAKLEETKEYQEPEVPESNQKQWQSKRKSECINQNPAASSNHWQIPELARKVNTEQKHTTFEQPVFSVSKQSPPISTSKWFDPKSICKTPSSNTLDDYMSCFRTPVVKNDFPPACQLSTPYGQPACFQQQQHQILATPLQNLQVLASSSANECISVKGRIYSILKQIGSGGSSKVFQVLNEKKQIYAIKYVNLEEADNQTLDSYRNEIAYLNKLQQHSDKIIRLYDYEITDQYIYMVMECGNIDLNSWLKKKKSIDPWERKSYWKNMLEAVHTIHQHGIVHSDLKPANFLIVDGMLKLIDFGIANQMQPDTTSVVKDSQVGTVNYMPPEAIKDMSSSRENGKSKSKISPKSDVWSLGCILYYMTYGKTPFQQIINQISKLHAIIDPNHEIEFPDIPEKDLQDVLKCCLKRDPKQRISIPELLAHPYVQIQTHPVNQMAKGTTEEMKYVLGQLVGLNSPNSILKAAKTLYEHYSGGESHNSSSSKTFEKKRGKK
Experimental: The human kinase Mps-1 phosphorylates a biotinylated substrate peptide. Detection of the phosphorylated product is achieved by time-resolved fluorescence resonance energy transfer (TR-FRET) from Europium-labelled anti-phospho-Serine/Threonine antibody as donor to streptavidin Labelled with cross-linked allophycocyanin (SA-XLent) as acceptor. Compounds are tested for their inhibition of the kinase activity.
N-terminally GST-tagged human full length recombinant Mps-1 kinase (purchased from Invitrogen, Karslruhe, Germany, cat. no PV4071) was used. As substrate for the kinase reaction a biotinylated peptide of the amino-acid sequence PWDPDDADITEILG (C-terminus in amide form, purchased from Biosynthan GmbH, Berlin) was used.
For the assay 50 nl of a 100-fold concentrated solution of the test compound in DMSO was pipetted into a black low volume 384 well microtiter plate (Greiner Bio-One, Frickenhausen, Germany), 2 μl of a solution of Mps-1 in assay buffer [0.1 mM sodium-ortho-vanadate, 10 mM MgCl2, 2 mM DTT, 25 mM Hepes pH 7.7, 0.05% BSA, 0.001% Pluronic F-127] were added and the mixture was incubated for 15 min at 22° C. to allow pre-binding of the test compounds to Mps-1 before the start of the kinase reaction. Then the kinase reaction was started by the addition of 3 μl of a solution of […] (ATP, 16.7 μM=>final conc. in the 5 μl assay volume is 10 μM) and peptide substrate (1.67 μM=>final conc. in the 5 μl assay volume is 1 μM) in assay buffer and the resulting mixture was incubated for a reaction time of 60 min at 22° C. The concentration of Mps-1 in the assay was adjusted to the activity of the enzyme lot and was chosen appropriate to have the assay in the linear range, typical enzyme concentrations were in the range of about 1 nM (final conc. in the 5 μl assay volume). The reaction was stopped by the addition of 3 μl of a solution of HTRF detection reagents (100 mM Hepes pH 7.4, 0.1% BSA, 40 mM EDTA, 140 nM Streptavidin-XLent [#61GSTXLB, Fa. Cis Biointernational, Marcoule, France], 1.5 nM anti-phospho(Ser/Thr)-Europium-antibody [#AD0180, PerkinElmer LAS, Rodgau-Jügesheim, Germany].
The resulting mixture was incubated 1 h at 22° C. to allow the binding of the phosphorylated peptide to the anti-phospho(Ser/Thr)-Europium-antibody. Subsequently the amount of phosphorylated substrate was evaluated by measurement of the resonance energy transfer from the Europium-labelled anti-phospho(Ser/Thr) antibody to the Streptavidin-XLent. Therefore, the fluorescence emissions at 620 nm and 665 nm after excitation at 350 nm was measured in a Viewlux TR-FRET reader (PerkinElmer LAS, Rodgau-Jügesheim, Germany). The “blank-corrected normalized ratio” (a Viewlux specific readout, similar to the traditional ratio of the emissions at 665 nm and at 622 nm, in which blank and Eu-donor crosstalk are subtracted from the 665 nm signal before the ratio is calculated) was taken as the measure for the amount of phosphorylated substrate. The data were normalised (enzyme reaction without inhibitor=0% inhibition, all other assay components but no enzyme=100% inhibition).

## COc1cc(S(C)(=O)=O)ccc1Nc1nc2cc(-c3ccc(NC(=O)[C@H](C)c4ccc(F)cc4)cc3)ccn2n1 [Example 5.1, (2R)-2-(4-fluorophenyl)-N-[4-(2-{[2-methoxy-4-(methylsulfonyl)phenyl]amino}[1,2,4]triazolo[1,5-a]pyridin-7-yl)phenyl]propanamide]
[1]
  IC50: 0.118 µM
Human kinase Mps-1
  IC50: ≤ 0.001 µM

## COc1cc(C(=O)N2CC(F)C2)ccc1Nc1nc2cc(-c3ccc(NC(=O)[C@H](C)c4ccc(F)cc4)cc3)ccn2n1 [Example 5.2, (2R)—N-{4-[2-({4-[(3-fluoroazetidin-1-yl)carbonyl]-2-methoxyphenyl}amino)[1,2,4]triazolo[1,5-a]pyridin-7-yl]phenyl}-2-(4-fluorophenyl)propanamide]
[1]
  IC50: 0.024 µM
Human kinase Mps-1
  IC50: ≤ 0.001 µM

## C[C@@H](C(=O)Nc1ccc(-c2ccn3nc(Nc4ccc(C(=O)N5CC(F)C5)cc4OCC(F)(F)F)nc3c2)cc1)c1ccc(F)cc1 [Example 5.3, (2R)—N-{4-[2-({4-[(3-fluoroazetidin-1-yl)carbonyl]-2-(2,2,2-trifluoroethoxy)phenyl}amino)[1,2,4]triazolo[1,5-a]pyridin-7-yl]phenyl}-2-(4-fluorophenyl)propanamide]
[1]
  IC50: 0.013 µM
Human kinase Mps-1
  IC50: ≤ 0.001 µM

## C[C@@H](C(=O)Nc1ccc(-c2ccn3nc(Nc4ccc(S(C)(=O)=O)cc4OCC(F)(F)F)nc3c2)cc1)c1ccc(F)cc1 [Example 5.5, (2R)-2-(4-fluorophenyl)-N-[4-(2-{[4-(methylsulfonyl)-2-(2,2,2-trifluoroethoxy)phenyl]amino}[1,2,4]triazolo[1,5-a]pyridin-7-yl)phenyl]propanamide]
[1]
  IC50: 0.082 µM
Human kinase Mps-1
  IC50: ≤ 0.001 µM

## COc1cc(C(=O)N2CCC2)ccc1Nc1nc2cc(-c3ccc(NC(=O)[C@H](C)c4ccc(F)cc4)cc3)ccn2n1 [Example 5.6, (2R)—N-[4-(2-{[4-(azetidin-1-ylcarbonyl)-2-methoxyphenyl]amino}[1,2,4]triazolo[1,5-a]pyridin-7-yl)phenyl]-2-(4-fluorophenyl)propanamide]
[1]
  IC50: 0.057 µM
Human kinase Mps-1
  IC50: ≤ 0.001 µM

## COc1cc(S(C)(=O)=O)ccc1Nc1cn2nc(-c3ccc(NC(=O)[C@H](C)c4ccc(F)cc4)cc3)ccc2n1 [Example 6.1, (2R)-2-(4-fluorophenyl)-N-[4-(2-{[2-methoxy-4-(methylsulfonyl)phenyl]amino}imidazo[1,2-b]pyridazin-6-yl)phenyl]propanamide]
[1]
  IC50: 0.501 µM
Human kinase Mps-1
  IC50: ≤ 0.001 µM
